Assay [1] has as its target Dual specificity protein kinase CLK2 (Homo sapiens, UniProt P49760). The experiment in a line: Selectivity interaction (KinomeScan (DiscoverX)) EUB0000138c CLK2. As to conditions: at 100 nM.
Assay [2] concerns the target T1, Aurora kinase C (Homo sapiens) (UniProt Q9UQB9).
T1 sequence (whole entry): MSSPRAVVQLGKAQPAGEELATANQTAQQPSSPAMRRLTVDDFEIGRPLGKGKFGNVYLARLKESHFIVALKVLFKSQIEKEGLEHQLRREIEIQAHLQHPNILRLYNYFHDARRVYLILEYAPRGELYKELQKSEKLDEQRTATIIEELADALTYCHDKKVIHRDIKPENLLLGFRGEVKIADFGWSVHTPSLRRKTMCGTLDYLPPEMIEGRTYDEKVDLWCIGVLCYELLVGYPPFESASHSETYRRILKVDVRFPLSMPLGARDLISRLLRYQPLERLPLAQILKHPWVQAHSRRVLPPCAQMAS
As to conditions: at 1 µM.

Assay [3] concerns the target T2, Ephrin type-B receptor 6 (Homo sapiens) (UniProt O15197).
T2 sequence (whole entry): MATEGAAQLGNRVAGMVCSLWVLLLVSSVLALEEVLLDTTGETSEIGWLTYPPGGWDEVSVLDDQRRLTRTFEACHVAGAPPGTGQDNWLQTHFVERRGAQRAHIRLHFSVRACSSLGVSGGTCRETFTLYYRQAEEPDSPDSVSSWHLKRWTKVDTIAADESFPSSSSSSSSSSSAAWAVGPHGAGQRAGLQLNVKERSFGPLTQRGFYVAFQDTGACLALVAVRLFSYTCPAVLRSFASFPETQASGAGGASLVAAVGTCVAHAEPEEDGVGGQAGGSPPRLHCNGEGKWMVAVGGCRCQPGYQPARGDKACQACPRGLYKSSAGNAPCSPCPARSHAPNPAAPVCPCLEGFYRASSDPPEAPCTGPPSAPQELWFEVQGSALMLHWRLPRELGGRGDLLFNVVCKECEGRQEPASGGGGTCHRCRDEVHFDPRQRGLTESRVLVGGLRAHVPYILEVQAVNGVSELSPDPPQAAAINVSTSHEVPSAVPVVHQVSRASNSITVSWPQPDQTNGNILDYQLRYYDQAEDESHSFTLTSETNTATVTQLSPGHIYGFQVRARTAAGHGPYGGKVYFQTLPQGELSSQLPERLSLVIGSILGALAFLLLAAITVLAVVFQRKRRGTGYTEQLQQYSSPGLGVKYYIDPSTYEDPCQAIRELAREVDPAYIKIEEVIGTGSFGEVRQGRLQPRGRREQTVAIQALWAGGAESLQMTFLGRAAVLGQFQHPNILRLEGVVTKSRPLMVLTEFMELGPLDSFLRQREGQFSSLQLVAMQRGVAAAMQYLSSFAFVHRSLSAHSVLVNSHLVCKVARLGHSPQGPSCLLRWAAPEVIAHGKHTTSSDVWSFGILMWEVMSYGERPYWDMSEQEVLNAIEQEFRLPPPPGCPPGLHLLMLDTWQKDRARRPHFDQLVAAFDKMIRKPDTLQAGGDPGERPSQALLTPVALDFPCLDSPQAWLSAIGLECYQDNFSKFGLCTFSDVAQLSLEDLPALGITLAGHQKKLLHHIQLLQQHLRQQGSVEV
As to conditions: at 1 µM.

The target in assay [4] is Tyrosine-protein kinase Fer (Homo sapiens, UniProt P16591). As to conditions: at 1 µM.
Tyrosine-protein kinase Fer, sequence (P16591 whole entry, looked up): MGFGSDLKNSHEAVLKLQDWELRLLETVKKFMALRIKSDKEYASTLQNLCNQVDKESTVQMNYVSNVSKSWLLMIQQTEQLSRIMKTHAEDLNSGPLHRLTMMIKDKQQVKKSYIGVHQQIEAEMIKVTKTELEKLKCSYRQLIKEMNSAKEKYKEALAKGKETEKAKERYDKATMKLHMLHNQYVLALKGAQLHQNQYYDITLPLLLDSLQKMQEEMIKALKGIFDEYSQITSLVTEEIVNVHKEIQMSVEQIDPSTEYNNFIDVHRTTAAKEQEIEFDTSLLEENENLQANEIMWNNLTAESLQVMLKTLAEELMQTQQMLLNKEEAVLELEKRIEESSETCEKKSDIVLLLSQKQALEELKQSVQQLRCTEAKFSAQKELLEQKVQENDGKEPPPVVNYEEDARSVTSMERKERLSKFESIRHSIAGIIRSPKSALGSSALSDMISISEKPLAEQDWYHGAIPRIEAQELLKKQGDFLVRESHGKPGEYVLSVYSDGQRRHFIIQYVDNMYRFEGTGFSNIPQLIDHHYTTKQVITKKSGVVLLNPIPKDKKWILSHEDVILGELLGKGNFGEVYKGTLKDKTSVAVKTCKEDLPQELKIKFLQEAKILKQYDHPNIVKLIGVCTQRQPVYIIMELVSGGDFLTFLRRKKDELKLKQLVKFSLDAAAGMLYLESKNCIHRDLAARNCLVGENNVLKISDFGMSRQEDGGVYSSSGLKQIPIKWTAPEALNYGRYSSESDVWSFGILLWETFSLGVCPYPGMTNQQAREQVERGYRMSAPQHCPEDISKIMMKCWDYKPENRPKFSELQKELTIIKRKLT
Assay [5] concerns the target T3, Serine/threonine-protein kinase TAO3 (Homo sapiens) (UniProt Q9H2K8).
T3 sequence (whole entry): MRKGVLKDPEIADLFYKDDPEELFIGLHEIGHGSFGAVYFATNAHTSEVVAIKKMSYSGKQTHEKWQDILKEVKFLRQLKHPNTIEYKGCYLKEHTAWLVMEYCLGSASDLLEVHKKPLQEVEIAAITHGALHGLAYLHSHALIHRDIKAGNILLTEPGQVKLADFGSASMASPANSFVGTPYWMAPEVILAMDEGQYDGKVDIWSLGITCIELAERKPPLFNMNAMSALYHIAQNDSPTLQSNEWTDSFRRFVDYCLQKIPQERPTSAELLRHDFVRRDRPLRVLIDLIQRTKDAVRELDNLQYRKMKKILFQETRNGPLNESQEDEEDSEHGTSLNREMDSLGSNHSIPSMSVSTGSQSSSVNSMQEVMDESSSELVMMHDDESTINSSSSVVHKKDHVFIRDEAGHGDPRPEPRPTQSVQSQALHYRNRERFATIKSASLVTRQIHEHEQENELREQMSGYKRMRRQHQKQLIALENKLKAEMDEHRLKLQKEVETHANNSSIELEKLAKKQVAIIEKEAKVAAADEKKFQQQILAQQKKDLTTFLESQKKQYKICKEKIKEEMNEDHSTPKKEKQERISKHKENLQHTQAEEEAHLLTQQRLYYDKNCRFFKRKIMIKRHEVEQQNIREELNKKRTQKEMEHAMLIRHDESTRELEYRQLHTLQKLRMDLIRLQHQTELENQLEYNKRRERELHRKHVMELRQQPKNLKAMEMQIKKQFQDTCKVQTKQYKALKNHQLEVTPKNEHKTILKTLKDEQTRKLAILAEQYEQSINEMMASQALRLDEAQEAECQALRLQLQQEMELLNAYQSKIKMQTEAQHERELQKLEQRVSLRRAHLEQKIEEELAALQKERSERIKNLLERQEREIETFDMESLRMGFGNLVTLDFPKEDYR
The experiment in a line: Selectivity interaction (KinomeScan (DiscoverX)) EUB0000305b TAOK3. As to conditions: CellTiter-Glo assay (Promega, proliferation in ACHN cells): IC50 = […] nM, https://www.sgc-ffm.uni-frankfurt.de/#!specificprobeove, at 100 nM. Background: In ATP-based viability assays light output follows the ATP content of the culture.

Assay [6] addresses BMP-2-inducible protein kinase (Homo sapiens) (UniProt Q9NSY1). Put plainly: Selectivity interaction (KinomeScan (DiscoverX)) EUB0000702a BMP2K. As to conditions: at 1 µM.
The target in assay [7] is Serine/threonine-protein kinase PLK1 (Homo sapiens, UniProt P53350). Put plainly: Selectivity interaction (KinomeScan (DiscoverX)) EUB0000702a PLK1. As to conditions: at 1 µM.
Serine/threonine-protein kinase PLK1, sequence (P53350 whole entry): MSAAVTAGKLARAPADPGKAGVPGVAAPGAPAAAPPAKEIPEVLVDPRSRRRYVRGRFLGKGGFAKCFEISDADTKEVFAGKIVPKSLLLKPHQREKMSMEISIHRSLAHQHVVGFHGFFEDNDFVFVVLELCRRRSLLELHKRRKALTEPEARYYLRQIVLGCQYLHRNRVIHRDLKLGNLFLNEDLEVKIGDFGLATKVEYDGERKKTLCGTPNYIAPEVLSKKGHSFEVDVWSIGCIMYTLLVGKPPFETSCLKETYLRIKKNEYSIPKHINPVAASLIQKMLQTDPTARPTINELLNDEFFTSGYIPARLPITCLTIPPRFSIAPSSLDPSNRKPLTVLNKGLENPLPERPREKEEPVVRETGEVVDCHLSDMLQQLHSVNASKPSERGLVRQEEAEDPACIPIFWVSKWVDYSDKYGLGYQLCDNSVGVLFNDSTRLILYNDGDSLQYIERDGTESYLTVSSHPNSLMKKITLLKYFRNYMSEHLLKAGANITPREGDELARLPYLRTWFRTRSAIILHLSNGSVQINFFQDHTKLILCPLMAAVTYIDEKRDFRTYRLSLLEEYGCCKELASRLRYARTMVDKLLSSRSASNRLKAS
The target of the next assay is Aurora kinase B (Homo sapiens, UniProt Q96GD4). Put plainly: Selectivity interaction (Enzymatic assay) EUB0000178b AURKB.
Aurora kinase B, sequence (Q96GD4 whole entry): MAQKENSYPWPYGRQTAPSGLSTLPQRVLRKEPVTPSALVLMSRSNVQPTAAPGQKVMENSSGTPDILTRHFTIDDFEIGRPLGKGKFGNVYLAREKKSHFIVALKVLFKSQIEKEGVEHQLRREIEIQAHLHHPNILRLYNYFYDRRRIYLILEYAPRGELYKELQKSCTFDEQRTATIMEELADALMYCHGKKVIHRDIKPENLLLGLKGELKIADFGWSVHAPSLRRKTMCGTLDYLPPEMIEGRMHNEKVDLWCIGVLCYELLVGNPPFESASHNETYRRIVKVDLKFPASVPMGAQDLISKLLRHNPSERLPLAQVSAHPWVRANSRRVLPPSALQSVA

Bounds are passed on as bounds.

BMP-2-inducible protein kinase (Homo sapiens), sequence (Q9NSY1 whole entry, looked up): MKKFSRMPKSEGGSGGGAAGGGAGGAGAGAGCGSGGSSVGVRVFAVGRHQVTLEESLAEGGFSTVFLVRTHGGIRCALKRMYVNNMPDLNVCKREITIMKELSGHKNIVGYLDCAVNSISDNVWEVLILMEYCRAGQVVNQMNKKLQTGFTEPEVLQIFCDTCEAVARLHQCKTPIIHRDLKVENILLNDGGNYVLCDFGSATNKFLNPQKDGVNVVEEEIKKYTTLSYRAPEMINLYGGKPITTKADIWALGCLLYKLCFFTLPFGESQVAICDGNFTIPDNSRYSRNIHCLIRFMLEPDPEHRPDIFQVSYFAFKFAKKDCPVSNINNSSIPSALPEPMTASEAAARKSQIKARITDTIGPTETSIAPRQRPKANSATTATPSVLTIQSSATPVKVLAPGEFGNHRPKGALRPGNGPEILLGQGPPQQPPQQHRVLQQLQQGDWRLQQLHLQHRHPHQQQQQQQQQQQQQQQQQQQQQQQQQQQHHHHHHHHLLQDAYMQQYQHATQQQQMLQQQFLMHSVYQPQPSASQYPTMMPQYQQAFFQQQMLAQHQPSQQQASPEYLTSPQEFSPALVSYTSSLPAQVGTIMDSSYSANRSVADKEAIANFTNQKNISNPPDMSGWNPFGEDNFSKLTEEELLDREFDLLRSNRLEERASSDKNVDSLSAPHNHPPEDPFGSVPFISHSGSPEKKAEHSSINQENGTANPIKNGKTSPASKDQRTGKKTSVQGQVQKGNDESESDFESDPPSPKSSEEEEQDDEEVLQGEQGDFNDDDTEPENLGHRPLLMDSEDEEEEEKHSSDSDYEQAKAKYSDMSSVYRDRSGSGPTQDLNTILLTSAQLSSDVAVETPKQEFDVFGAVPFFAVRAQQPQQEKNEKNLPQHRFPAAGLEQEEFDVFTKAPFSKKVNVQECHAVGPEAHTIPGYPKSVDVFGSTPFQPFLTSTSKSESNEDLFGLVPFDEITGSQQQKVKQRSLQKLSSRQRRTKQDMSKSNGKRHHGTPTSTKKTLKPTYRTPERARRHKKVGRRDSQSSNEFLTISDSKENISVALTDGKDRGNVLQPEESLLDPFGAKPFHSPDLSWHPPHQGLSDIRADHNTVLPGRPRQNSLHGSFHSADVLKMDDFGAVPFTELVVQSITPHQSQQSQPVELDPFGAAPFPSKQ
Dual specificity protein kinase CLK2, sequence (P49760 whole entry, looked up): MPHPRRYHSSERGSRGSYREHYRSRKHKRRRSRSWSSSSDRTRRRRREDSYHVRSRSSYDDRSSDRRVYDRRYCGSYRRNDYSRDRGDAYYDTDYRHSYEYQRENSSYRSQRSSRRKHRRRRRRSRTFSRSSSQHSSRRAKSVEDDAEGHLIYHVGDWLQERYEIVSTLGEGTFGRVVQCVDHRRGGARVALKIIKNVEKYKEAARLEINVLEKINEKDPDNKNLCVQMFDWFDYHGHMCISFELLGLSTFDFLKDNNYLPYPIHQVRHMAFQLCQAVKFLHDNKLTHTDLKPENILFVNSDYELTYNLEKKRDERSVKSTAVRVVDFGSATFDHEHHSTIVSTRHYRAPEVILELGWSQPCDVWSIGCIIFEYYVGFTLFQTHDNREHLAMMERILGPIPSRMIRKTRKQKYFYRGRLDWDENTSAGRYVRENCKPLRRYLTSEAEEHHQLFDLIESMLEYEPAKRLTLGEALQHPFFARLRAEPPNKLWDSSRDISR

`CNC(=O)c1ccc(Nc2ncc(C(F)(F)F)c(NCc3nccnc3N(C)S(C)(=O)=O)n2)cc1` [DEFACTINIB] yielded a % of control in assay [1] of 0%. Turning to `CCOc1cn(-c2ccc(F)cc2C)nc1C(=O)Nc1ccc(Oc2ccnc3cc(OC)c(OC)cc23)c(F)c1`, the % of control in assay [2], in assay [3] and in assay [4] was < 10% each time.

`C[C@H](c1ccnc(Nc2nc3ccc(-c4cc(N(C)C)ncn4)cc3[nH]2)c1)N1CCN(C(=O)CC(F)(F)F)CC1` [BAY-985] returned a % of control in assay [5] of 41%. Consider `CN(c1ccnc(CNc2nc(Nc3ccc4c(c3)CC(=O)N4)ncc2C(F)(F)F)n1)S(C)(=O)=O` [PF-00911705], for which the values for the % of control in assay [6] and in assay [7] were 2.3% and 7.6%, respectively.

On to `CN1C(=O)c2sccc2N(C)c2nc(Nc3ccc(S(N)(=O)=O)cc3)ncc21`, for which the IC50 (commonly the midpoint of a concentration-inhibition curve) on Aurora kinase B stood at 19.4 nM.

For the origin of these results see ChEMBL document CHEMBL5212743, “Selectivity Literature for EUbOPEN Chemogenomics Library wave 3” (2023).
